Marks after values point to notes of the source that are not given here.
Tests used:
[1] = system: steady-state neuromuscular block induced by vecuronium bromide (Vec); test: Reversal of neuromuscular blockade in vivo, anaesthetized guinea pig, vecuronium; settings: Vec infusion, 85–90% block, anaesthetized guinea pigs, i.v. reversal agent; mean
Description: (§1) Male Dunkin-Hartley guinea pigs (bodyweight: 600–900 g) were anaesthetized by i.p. administration of 10 mg/kg pentobarbitone and 1000 mg/kg urethane. After tracheotomy, the animals were artificially ventilated using a Harvard small animal ventilator. A catheter was placed into the carotid artery for continuous monitoring of arterial blood pressure and the taking of blood samples for blood gas analysis. Heart rate was derived from the blood pressure signal. The sciatic nerve was stimulated (rectangular pulses of 0.5 ms duration at 10 s (0.1 Hz) intervals at a supramaximal voltage, using a Grass S88 Stimulator) and the force of M. gastrocnemius contractions was measured using a Grass FT03 force-displacement transducer. Contractions, blood pressure and heart rate were recorded on a multichannel Grass 7D recorder. Catheters were placed in both jugular veins. One catheter was used for the continuous infusion of a neuromuscular blocking agent. The infusion rate of the neuromuscular blocking agent was increased until a steady-state block of 85–90% was obtained. The other catheter was used for administration of increasing doses of the reversal agent. During continuous infusion of the neuromuscular blocking agent, single doses of increasing concentration of reversal agent were given. At the end of the experiment, the measured force of muscle contractions was plotted against the concentration of reversal agent, and using regression analysis techniques, the 50% reversal concentration was calculated.

[2] = system: neuromuscular block induced by rocuronium in isolated mouse hemidiaphragm; test: Reversal of neuromuscular block in vitro: isolated mouse hemidiaphragm preparation; settings: for Mouse hemidiaphragm: maximum reversal (%) / concentration of chemical chelator at maximum reversal: 3.1 μM rocuronium; for concentration of chemical chelator at maximum reversal: mouse hemidiaphragm; for Reversal of the neuromuscular blocking action of rocuronium (in words): rocuronium-induced block
Description: Hemidiaphragms, with phrenic nerves attached, were removed from euthanized male mice (Institute of Cancer Research; bodyweight: 20–60 g). The preparations were mounted on a tissue holder and placed in a tissue bath filled with a modified Krebs-Henseleit solution (composition: 118 mM NaCl, 30 mM NaHCO3, 5 mM KCl, 1 mM KH2PO4, 1 mM MgSO4, 30 mM glucose and 2.5 mM CaCl2) at 37° C. and bubbled with 95% oxygen and 5% carbondioxide. One end of the preparation was connected with a siliconized silk suture to a Grass FT03 force-displacement transducer. An initial force of 10 mN was applied. The phrenic nerve was placed on a bipolar platinum electrode and was stimulated with rectangular pulses of 0.2 ms duration at 20 s (0.05 Hz) intervals at a supramaximal voltage, using a Grass S88 Stimulator. Contractions were recorded on a four channel Grass 79D recorder.
Increasing amounts of reversal agent were then administered into the bath at intervals of 10 min. The % maximum reversal was established. At the end of the experiment, the measured muscle contractions force was plotted against the concentration of reversal agent, and using regression analysis techniques, the 50% reversal concentration was calculated.
After induction of neuromuscular block by rocuronium, the % maximum reversal produced by the addition of a number of γ-cyclodextrin derivatives (compounds 11–16), a cyclic octasaccharide comprising 4 rhamnosyl-mannopyranosyl units (compound 24), or a number of paracyclophane derivatives (compounds 17–21 and 23) are presented in Table II.
Reversal of neuromuscular block in vitro was carried out using the mouse hemidiaphragm preparation as described in Example 6.

[3] = system: steady-state neuromuscular block induced by suxamethonium chloride (Sux; succinylcholine); test: Reversal of neuromuscular blockade in vivo, anaesthetized guinea pig, suxamethonium; settings: Sux infusion, 85–90% block, anaesthetized guinea pigs, i.v. reversal agent; mean
Description: as §1

[4] = system: steady-state neuromuscular block induced by mivacurium chloride (Miv); test: Reversal of neuromuscular blockade in vivo, anaesthetized guinea pig, mivacurium; settings: Miv infusion, 85–90% block, anaesthetized guinea pigs, i.v. reversal agent; mean
Description: as §1

[5] = system: steady-state neuromuscular block induced by pancuronium bromide (Pan); test: Reversal of neuromuscular blockade in vivo, anaesthetized guinea pig, pancuronium; settings: Pan infusion, 85–90% block, anaesthetized guinea pigs, i.v. reversal agent; mean
Description: as §1

[6] = system: steady-state neuromuscular block induced by cis-atracurium (Cis-Atr); test: Reversal of neuromuscular blockade in vivo, anaesthetized guinea pig, cis-atracurium; settings: Cis-Atr infusion, 85–90% block, anaesthetized guinea pigs, i.v. reversal agent; mean
Description: as §1

[7] = system: steady-state neuromuscular block induced by rocuronium bromide (Roc); test: Reversal of neuromuscular blockade in vivo, anaesthetized guinea pig, rocuronium; settings: Roc infusion, 85–90% block, anaesthetized guinea pigs, i.v. reversal agent; mean
Description: as §1
Reversal of neuromuscular block in vivo, induced by rocuronium bromide, was carried out as described in Example 5.

[8] = system: steady-state neuromuscular block induced by tubocurarine chloride (T-C); test: Reversal of neuromuscular blockade in vivo, anaesthetized guinea pig, tubocurarine; settings: T-C infusion, 85–90% block, anaesthetized guinea pigs, i.v. reversal agent; mean
Description: as §1

[9] = system: steady-state neuromuscular block induced by atracurium besilate (Atr); test: Reversal of neuromuscular blockade in vivo, anaesthetized guinea pig, atracurium; settings: Atr infusion, 85–90% block, anaesthetized guinea pigs, i.v. reversal agent; mean
Description: as §1

[10] = system: steady-state neuromuscular block induced by rapacuronium bromide (Rap; Org 9487); test: Reversal of neuromuscular blockade in vivo, anaesthetized guinea pig, rapacuronium; settings: Rap infusion, 85–90% block, anaesthetized guinea pigs, i.v. reversal agent; mean
Description: as §1

[11] = Complexation of rocuronium bromide by chemical chelators (1H NMR, 303 K); format: binding; settings: NMR spectroscopy at 303 K, D2O, curve fitting of proton chemical shift changes
Description: All the ^1H spectra (303 K) were recorded at 400.13 MHz with 128 scans, sw=12 ppm, TD=32 k and zero filled to 64 k real points in processing. All experiments were measured at 303K.
Determination of Stoichiometry
Stock solutions of rocuronium bromide and γ-cyclodextrin (15) were prepared, both with a concentration of 6.02 mM. From these, sixteen solutions were prepared (with the mole % of rocuronium ranging from 0-100) by taking aliquots of 0–800 μl of the rocuronium bromide solution. Aliquots of the γ-cyclodextrin solution, 800–0 μl were added to make the solution a total volume of 800 μl and 100 mole % (i.e. 6.02 mM of [rocuronium bromide+γ-cyclodextrin]). ^1H-NMR spectra were recorded as described above.
If the chemical shift change of H9α in rocuronium bromide is defined as Δδ then a plot of [Δδ*(mole % rocuronium bromide)] vs. [mole % rocuronium bromide] gives a so called Job Plot by the method of continuous variation (Connors K. A.: Binding constants, The measurement of Molecular Complex Stability; Wiley-Interscience; New York, 1987, pp 24–28). The maximum in this plot is indicative for the stoichiometry of the complex.
Determination of the Association Constants
A stock solution of rocuronium bromide: 0.821 mM in D2O was prepared. […]
^1H NMR spectra were recorded as descibed above. […]

Compound | Dose (ED50) producing 50% reversal of steady-state neuromuscular block [1] | Mouse hemidiaphragm: maximum reversal (%) [2] | concentration of chemical chelator at maximum reversal [2] | Dose (ED50) producing 50% reversal of steady-state neuromuscular block [3] | Dose (ED50) producing 50% reversal of steady-state neuromuscular block [4] | Dose (ED50) producing 50% reversal of steady-state neuromuscular block [5] | Dose (ED50) producing 50% reversal of steady-state neuromuscular block [6] | Dose (ED50) producing 50% reversal of steady-state neuromuscular block [7] | Dose (ED50) producing 50% reversal of steady-state neuromuscular block [8] | Dose (ED50) producing 50% reversal of steady-state neuromuscular block [9] | Dose (ED50) producing 50% reversal of steady-state neuromuscular block [10] | Reversal of the neuromuscular blocking action of rocuronium (in words) [2] | Association constant (Ka, M^−1) of 1:1 complex of rocuronium bromide and cyclic host compound [11]
γ-cyclodextrin-phospate sodium salt (DS = 3) [Compound 11] | 67 (3) μmol.kg^−1 | 34% | 360 µM | 160 (2) μmol.kg^−1 | 292 (2) μmol.kg^−1 | 197 (2) μmol.kg^−1 | 204 (2) μmol.kg^−1 | 64 (3) μmol.kg^−1 | 160 (2) μmol.kg^−1 | 113 (2) μmol.kg^−1 | 80 (3) μmol.kg^−1 |  | 
carboxyethyl-γ-CD (DS = 3.8) [Compound 14] | 25 (3) μmol.kg^−1 | 87% | 144 µM | 1294 (2) μmol.kg^−1 | 399 (2) μmol.kg^−1 | 141 (3) μmol.kg^−1 | 1558 (3) μmol.kg^−1 | 7 (3) μmol.kg^−1 | 294 (2) μmol.kg^−1 | 421 (2) μmol.kg^−1 | 43 (3) μmol.kg^−1 | efficiently blocked | 
2-hydroxypropyl-γ-CD (DS = 4) [Compound 16] | 123 (3) μmol.kg^−1 | 71% | 360 µM | 1340 (2) μmol.kg^−1 | 1674 (2) μmol.kg^−1 | 440 (3) μmol.kg^−1 | 878 (2) μmol.kg^−1 | 12 (3) μmol.kg^−1 | 909 (2) μmol.kg^−1 | 828 (2) μmol.kg^−1 | 134 (3) μmol.kg^−1 |  | 
carboxymethyl-γ-CD (DS = 3.2) [Compound 13] | 30 (3) μmol.kg^−1 | 88% | 180 µM | 999 (2) μmol.kg^−1 | 964 (3) μmol.kg^−1 | 641 (4) μmol.kg^−1 | 893 (2) μmol.kg^−1 | 25 (4) μmol.kg^−1 | 431 (2) μmol.kg^−1 | 990 (2) μmol.kg^−1 | 227 (2) μmol.kg^−1 | efficiently blocked | 
OC[C@H]1O[C@@H]2O[C@H]3[C@H](O)[C@@H](O)[C@@H](O[C@H]4[C@H](O)[C@@H](O)[C@@H](O[C@H]5[C@H](O)[C@@H](O)[C@@H](O[C@H]6[C@H](O)[C@@H](O)[C@@H](O[C@H]7[C@H](O)[C@@H](O)[C@@H](O[C@H]8[C@H](O)[C@@H](O)[C@@H](O[C@H]1[C@H](O)[C@H]2O)O[C@@H]8CO)O[C@@H]7CO)O[C@@H]6CO)O[C@@H]5CO)O[C@@H]4CO)O[C@@H]3CO [Compound 9, β-cyclodextrin] | 636 (1) μmol.kg^−1 |  |  |  |  | 1050 (2) μmol.kg^−1 |  | 20 (3) μmol.kg^−1 |  |  | 358 (3) μmol.kg^−1 |  | 3,100–3,900* M^−1
OC[C@H]1O[C@@H]2O[C@H]3[C@H](O)[C@@H](O)[C@@H](O[C@H]4[C@H](O)[C@@H](O)[C@@H](O[C@H]5[C@H](O)[C@@H](O)[C@@H](O[C@H]6[C@H](O)[C@@H](O)[C@@H](O[C@H]7[C@H](O)[C@@H](O)[C@@H](O[C@H]8[C@H](O)[C@@H](O)[C@@H](O[C@H]9[C@H](O)[C@@H](O)[C@@H](O[C@H]1[C@H](O)[C@H]2O)O[C@@H]9CO)O[C@@H]8CO)O[C@@H]7CO)O[C@@H]6CO)O[C@@H]5CO)O[C@@H]4CO)O[C@@H]3CO [Compound 15, γ-cyclodextrin] | 75 (4) μmol.kg^−1 | 94% | 144 µM | 1189 (2) μmol.kg^−1 | 1690 (2) μmol.kg^−1 | 186 (4) μmol.kg^−1 | 1710 (2) μmol.kg^−1 | 4 (3) μmol.kg^−1 | 630 (2) μmol.kg^−1 | 2793 (4) μmol.kg^−1 | 57 (3) μmol.kg^−1 | efficiently blocked | 10,000–20,400# M^−1

Source: patent US7265099B1, “Use of chemical chelators as reversal agents for drug-induced neuromuscular block” (Organon N.V., priority 1999, dated 2007)
